Holding throughout (experiment): area under concentration-response curve (viability) (AUC (a.u.)); higher = less active
Holding throughout (details): 48 h

For one experiment, the system named is NCI-H295R. The essentials: (§1)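 Library compounds were dispensed at 11 concentrations (23 nL each) onto three adrenocortical carcinoma cell lines in 1,536-well plates. Luminescence was recorded after 48 h using CellTiter-Glo, and signals were normalised per plate to vehicle and empty-well controls. Fitted concentration-response curves of inhibitory or non-responding classes only supplied the AC50 and area under the curve.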

For the next experiment, the system named is CU-ACC2. In a few lines:
as §1

Another experiment relates to CU-ACC1. In a few lines: as §1

Each structure is given as a SMILES string.

In the case of `C#CCN(C)[C@H](C)Cc1ccccc1`, the results for the “area under concentration-response curve” value with NCI-H295R, in the experiment on CU-ACC2 and in the experiment on CU-ACC1 were 434, 457 and 467, respectively.

Regarding `CN(Cc1cnc2nc(N)nc(N)c2n1)c1ccc(C(=O)N[C@@H](CCC(=O)O)C(=O)O)cc1`, the “area under concentration-response curve” value is 539 in the experiment on NCI-H295R, 615 in the experiment with CU-ACC2 and 508 in the experiment with CU-ACC1.

As to `OC[C@H]1O[C@@H](OC2=CC3=C(C=C2)C(=O)\C(=C/O3)C4=CC=C(O)C=C4)[C@H](O)[C@@H](O)[C@@H]1O`, the “area under concentration-response curve” value was 576 with NCI-H295R, 591 in the experiment on CU-ACC2 and 551 with CU-ACC1.

Consider `CC[C@H]1OC(=O)[C@H](C)C(=O)[C@H](C)[C@@H](O[C@H]2O[C@H](C)C[C@H](N(C)C)[C@H]2O)[C@](C)(OC)C[C@@H](C)C(=O)[C@H](C)[C@H]2N(CCCCn3cnc(-c4cccnc4)c3)C(=O)O[C@]12C`, for which the “area under concentration-response curve” value came to 419 in the experiment with NCI-H295R, 452 in the experiment with CU-ACC2 and 436 in the experiment on CU-ACC1.

Consider `ClC\1=C(/CN2CCCC2=N)NC(=O)NC1=O`, for which the “area under concentration-response curve” value in the experiment on NCI-H295R was determined as 486; in the experiment with CU-ACC2, 547; in the experiment on CU-ACC1, 505.

With `CCn1c(=O)c2c(nc(/C=C/c3ccc(OC)c(OC)c3)n2C)n(CC)c1=O`, the “area under concentration-response curve” value in the experiment on NCI-H295R amounted to 431; in the experiment with CU-ACC2, 434; with CU-ACC1, 431.

Take `CNCC(O)c1ccc(O)cc1` (configuration not stated): the results for the “area under concentration-response curve” value in the experiment with NCI-H295R, with CU-ACC2 and with CU-ACC1 were 579, 618 and 565, respectively.

With `COc1ccc(/C=C\c2cc(OC)c(OC)c(OC)c2)cc1NC(=O)[C@H](N)CO`, the “area under concentration-response curve” value amounted to 521 with NCI-H295R, 594 with CU-ACC2 and 542 in the experiment with CU-ACC1.

Consider `C[C@@H](CN1CC(=O)NC(=O)C1)N1CC(=O)NC(=O)C1`, for which the figures for the “area under concentration-response curve” value with NCI-H295R, in the experiment with CU-ACC2 and in the experiment with CU-ACC1 were 478, 588 and 516, respectively.

Take `CC1=NN(c2ccc(C(=O)O)cc2)C(=O)/C1=C/c1ccc(-c2cc(C)c(C)cc2[N+](=O)[O-])o1`: the “area under concentration-response curve” value came to 585 with NCI-H295R, 661 in the experiment with CU-ACC2 and 556 in the experiment on CU-ACC1.

For the compound `COC/1=C/[C@@H]2[C@@H]3CC4=C(C(=C(OC)C=C4)O)[C@]2(CCN3C)CC1=O`, the “area under concentration-response curve” value worked out at 479 in the experiment with NCI-H295R, 519 with CU-ACC2 and 457 with CU-ACC1.

For `COc1ccc2c(OCc3nnc4ccc(-c5ccccc5)nn34)ccnc2c1`, the results for the “area under concentration-response curve” value in the experiment with NCI-H295R, in the experiment with CU-ACC2 and in the experiment on CU-ACC1 were 589, 609 and 520, respectively.

Regarding `CCCC[C@@H](C=O)NC(=O)[C@H](CC(C)C)NC(=O)OCc1ccccc1`, the “area under concentration-response curve” value in the experiment on NCI-H295R turned out to be 517; with CU-ACC2, 552; with CU-ACC1 it was 463.

For the compound `COc1cccc(Nc2c(C(N)=O)cnc3c(C)cc([S+](=O)([O-])c4cccc(C(=O)N(C)C)c4)cc23)c1`, the “area under concentration-response curve” value in the experiment on NCI-H295R amounted to 545; with CU-ACC2, 578; in the experiment with CU-ACC1, 466.

Regarding `O=C1CCCC(=O)C1C(=O)c1ccc(C(F)(F)F)cc1[N+](=O)[O-]`, the “area under concentration-response curve” value was found to be 545 in the experiment on NCI-H295R, 576 with CU-ACC2 and 565 in the experiment on CU-ACC1.

On to `COC1=CC=C(C=C1O)C/2=C/C(=O)C3=C(O2)C=C(O[C@@H]4O[C@H](CO[C@@H]5O[C@@H](C)[C@H](O)[C@@H](O)[C@H]5O)[C@@H](O)[C@H](O)[C@H]4O)C=C3O`, for which the figures for the “area under concentration-response curve” value with NCI-H295R, in the experiment with CU-ACC2 and with CU-ACC1 were 554, 582 and 502, respectively.

Regarding `O=C([C@@H](Cc1cccc(C(F)(F)F)c1)N[S+](=O)([O-])c1cc(F)c2c(c1)CCNC2)N1CCCC1`, the figures for the “area under concentration-response curve” value in the experiment on NCI-H295R, in the experiment with CU-ACC2 and with CU-ACC1 were 535, 515 and 528, respectively.

Consider `CN(C)/N=N/c1nc[nH]c1C(N)=O`, for which the “area under concentration-response curve” value turned out to be 481 in the experiment with NCI-H295R, 547 in the experiment on CU-ACC2 and 514 with CU-ACC1.

As for `Clc1cc2c(NC3CCCC3)nnc(-c3ccncc3)c2cc1Cl`, the “area under concentration-response curve” value in the experiment on NCI-H295R was determined as 518; with CU-ACC2, 609; with CU-ACC1, 581.

Turning to `O=C(O)CCCCN(CCc1ccccc1OCc1ccc(CCc2ccccc2)cc1)Cc1ccc(C(=O)O)cc1`, the “area under concentration-response curve” value with NCI-H295R is 495; with CU-ACC2, 561; in the experiment on CU-ACC1 it was 471.

On to `O=C(O)CC(C(=O)O)N1C(=O)/C(=C2/C(=O)Nc3ccc(Br)cc32)SC1=S` (configuration not stated), for which the “area under concentration-response curve” value amounted to 567 in the experiment on NCI-H295R, 593 with CU-ACC2 and 569 with CU-ACC1.

Regarding `COc1ccc2cccc(CCNC(C)=O)c2c1`, the figures for the “area under concentration-response curve” value with NCI-H295R, in the experiment with CU-ACC2 and with CU-ACC1 were 579, 589 and 515, respectively.

In the case of `NC(=O)C1CCCc2c1[nH]c1ccc(Cl)cc21` (configuration not stated), the “area under concentration-response curve” value in the experiment with NCI-H295R is 545; in the experiment with CU-ACC2, 597; in the experiment with CU-ACC1, 496.

Consider `O=C(O)c1cc(O)c2c(c1)C(=O)c1cccc(O)c1C2=O`, for which the “area under concentration-response curve” value in the experiment with NCI-H295R worked out at 582; with CU-ACC2, 622; in the experiment on CU-ACC1 it was 529.

As for `CC1=CC=CC=C1N2\C(=N/C3=C(C(=CC=C3)C)C2=O)C[N]4C=NC5=C4N=CN=C5N`, the “area under concentration-response curve” value turned out to be 583 with NCI-H295R, 643 with CU-ACC2 and 555 in the experiment on CU-ACC1.

As to `COc1cc([S+](C)(=O)[O-])ccc1Nc1nc2ccc(-c3ccc(NC(=O)[C@H](C)c4ccc(F)cc4)cc3)cn2n1`, the entries for the “area under concentration-response curve” value in the experiment on NCI-H295R, with CU-ACC2 and in the experiment on CU-ACC1 were 567, 648 and 565, respectively.

`CCc1c(C(=O)C(N)=O)c2c(OCC(=O)O)cccc2n1Cc1ccccc1`: the “area under concentration-response curve” value with NCI-H295R came to 550; with CU-ACC2 it was 599; with CU-ACC1, 572.

In the case of `Nc1cccc2c1C(=O)N(C1CCC(=O)NC1=O)C2=O` (configuration not stated), the “area under concentration-response curve” value in the experiment with NCI-H295R came out at 567; in the experiment with CU-ACC2, 645; in the experiment on CU-ACC1 it was 520.

For the compound `Cn1cc(-c2ccc3ncc(Cc4ccc5ncccc5c4)n3n2)cn1`, the “area under concentration-response curve” value in the experiment with NCI-H295R came out at 497; in the experiment on CU-ACC2, 545; in the experiment on CU-ACC1, 450.

Values taken from the supplement of paper PMC10949913.
